Reference: US6835378B2, “Method and compositions for inhibiting thrombin-induced coagulation” (The Texas A&M University System University, priority 2001, dated 2004)
“Also recorded” adds a separate entry of the source.

Legend:
[1] = biological target: T1, binding of rSdrG(50-597) to Fg (Staphylococcus epidermidis, UniProt Q9KI13); experiment: ELISA: inhibition of rSdrG(50-597) binding to immobilized Fg by synthetic peptides; design: species or system S. epidermidis; conditions: for inhibition of rSdrG(50-597) binding to Fg: 50 nM rSdrG(50-597) pre-incubated with peptide 1 h
T1 construct: made in house; host or cells: E. coli Topp3
T1 sequence (Q9KI13 50-597): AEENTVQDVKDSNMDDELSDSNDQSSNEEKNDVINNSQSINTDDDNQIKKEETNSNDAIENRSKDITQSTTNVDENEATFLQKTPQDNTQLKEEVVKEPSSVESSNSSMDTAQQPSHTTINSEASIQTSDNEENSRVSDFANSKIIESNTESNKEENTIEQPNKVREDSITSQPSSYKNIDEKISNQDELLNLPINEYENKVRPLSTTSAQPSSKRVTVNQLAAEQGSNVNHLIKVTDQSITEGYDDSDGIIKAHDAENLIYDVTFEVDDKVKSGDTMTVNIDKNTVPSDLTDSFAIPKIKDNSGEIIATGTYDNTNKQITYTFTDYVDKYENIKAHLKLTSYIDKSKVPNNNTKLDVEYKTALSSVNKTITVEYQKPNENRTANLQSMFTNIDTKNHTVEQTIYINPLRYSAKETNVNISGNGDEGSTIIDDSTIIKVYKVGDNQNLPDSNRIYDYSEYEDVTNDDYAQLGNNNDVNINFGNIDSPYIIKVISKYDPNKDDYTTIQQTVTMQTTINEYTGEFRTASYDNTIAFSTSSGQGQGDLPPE
Protocol: ELISA—Microtiter plates (Immulon 4, Dynatech Laboratories Inc.) were coated with 1 μg of Fg (Enzyme Research Labs) in PBS, pH 7.5 for 18 h at 4° C. Plates were washed three times with PBS, 0.05% Tween 20 (PBST) and blocked with 1% (w/v) bovine serum albumin (BSA) for 1 h at room temperature. Plates were washed three times with PBST and rSdrG(50-597), diluted into PBS, was added to the wells and the plate was incubated for 1 h at room temperature. Plates were washed three times with PBST and bound rSdrG(50-597) was detected by adding a 1:2000 dilution of an anti-His-tag mAb (Clontech) in PBST, 0.1% BSA. Plates were incubated for 1 h at room temperature and then washed three times with PBST. A 1:2000 dilution of goat anti-mouse alkaline phosphatase (AP)-conjugated polyclonal antibodies (Bio-Rad) in PBST, 0.1% BSA were added to the wells and the plate was incubated for 1 h at room temperature. Plates were washed three times with PBST and developed with p-nitrophenyl phosphate (Sigma) in 1 M diethanolamine, 0.5 mM MgCl2, pH 9.0 at room temperature for ˜30 min. Plates were read at 405 nm using an ELISA plate reader (Thermomax microplate reader, Molecular Devices).
In the inhibition experiments, 50 nM rSdrG(50-597) in PBS was pre-incubated with the indicated amounts of selected peptides for 1 h at room temperature. The sample mixtures were added to the Fg-coated wells and bound rSdrG(50-597) was detected as described above.

rSdrG(50-597) = rSdrG(50-597) (Staphylococcus epidermidis, UniProt Q9KI13); conditions: increasing amounts of unlabeled peptide
Protocol: Fluorescence Polarization—Fluorescence polarization was used to determine the equilibrium dissociation constant (KD) for the interaction of rSdrG(50-597) with peptide β1-25. The peptide was labeled with fluorescein as previously described (18). Increasing concentrations of rSdrG(50-597) in PBS, pH 7.5, were incubated with 10 nM labeled peptide for 3 h in the dark at room temperature. Reactions were allowed to reach equilibrium. Polarization measurements were taken with a Luminescence Spectrometer LS50B (Perkin Elmer) using FL WinLab software (Perkin Elmer). Binding data was analyzed by nonlinear regression used to fit a binding function as defined by the following equation: [formula]
Determination of Equilibrium Dissociation Constants (KD)—An equilibrium dissociation constant (KD) for the interaction of rSdrG(50-597) with the Fg Bβ chain peptide β1-25 was determined.

[2] = in vivo; cited from earlier work

Substance | inhibition of rSdrG(50-597) binding to Fg [1] | also measured
ADSEGEGDFLAEGGGVR (listed as Staphylococcus epidermidis) [FpA] | essentially inactive | –
FSARGHRPLD [β11-20] | essentially inactive | –
FSERKDLHQGEGNPREFVENDAKGR [β1-25S] | did not interfere | inhibition of rSdrG(50-597) binding to fluorescein-labeled β1-25 (rSdrG(50-597)): not
NEEGFFSA RGHRPLD [β6-20] | Effective inhibition; also recorded: potent inhibitor | –
NEEGFFSARGHRPLDKKREE [β6-25] | inhibit the binding of rSdrG(50-597) to Fg in a concentration dependent manner | –
QGVNDNEEGFFSAR [FpB] | inhibited the binding of rSdrG(50-597) in a concentration dependent manner; also recorded: poor inhibitory activity | activity relative to peptide β1-25 (fold less active) ([1]; inhibition ELISA, FIG. 4C): at least 10 fold
QGVNDNEEGFFSARGHRPLDKK REE [β1-25] | inhibit the binding of rSdrG(50-597) to Fg in a concentration dependent manner | inhibition of rSdrG(50-597) binding to fluorescein-labeled β1-25 (rSdrG(50-597)): inhibited binding
heparin | – | major bleeding, patients [2]: 1-33%; thrombocytopenia, patients [2]: 1-5%
